Results published in patent US11473153B2, “Device and methods of using device for separation of bacteria from complex samples” (priority 2014, dated 2022).
Like-named read-outs stand apart in the source and are kept apart here.

Legend:
bacteria = settings: cited from earlier work
S. typhimurium [1] = test: Four-channel membrane microfluidic chip, separation by chemoattractant (FIG. 9B); type: cell-based
Description: FIG. 9A depicts a diagram of a microfluidic chip with four channels that overlap in the vertical direction, with each channel being separated by a semipermeable membrane. Each channel has an inlet/outlet on either end of the chip, each channel can be filled using regular pipettes. The four channels overlap in the vertical direction to maximize contact are amongst channels and optimizes the time required for the chemical gradients to form. The membranes between the channels prevent fluid flow while allowing the chemical gradients to form and bacteria to migrate between the channels. […] The contents of each channel was extracted after approximately 30 minutes and the bacterial density measured using a cell counter (left hand bar in each column). […] Control experiments were also performed to evaluate random dispersion of bacteria to channels 1 and 3 filled with buffer; very few of the bacteria moved away from channel 2 without the present of the chemoattractant (middle bars in each column).

S. typhimurium [2] = test: Microliter-scale sample chamber device, separation run (FIG. 12); type: cell-based; settings: 30 minutes
Experimental: Experimental and control separation runs were performed in the device and results recorded as disclosed below. FIG. 12 depicts an experimental run on the device in which 2 mM of alpha-methylaspartate (chemo-attractant) was diluted in chemotaxis buffer was introduced in the extraction chamber. […] Deionized water was introduced in the repellent chamber. After 30 minutes, the contents of each chamber was recovered and the amount of bacteria in each chamber counted.

[3] = test system: unspecific bacteria grown from dirt
E. coli O157H7 = settings: Eth20%/GroundMeat + O157H7/Media, 30 min, 1.5 ml device
S. typhimurium [4] = settings: Eth20%/Media + Salmonella/Media, 1.5 ml device

## N[C@@H](Cc1c[nH]c2ccccc12)C(=O)O [Tryptophan]
bacteria
  Chemoattractant (bacteria for which the substance is one): B. subtilis, C. vinosum
  Chemorepellent (bacteria for which the substance is one): E. coli, S. typhimurium

## CC(N)(CC(=O)O)C(=O)O (stereo not drawn) [α-methyl aspartate]
S. typhimurium [1]; 2 mM in channel 1, S. typhimurium in channel 2, buffer in channel 3, approximately 30 minutes
  bacterial density per channel (cell counter): most bacteria crossed over to the channel containing maximal concentration of chemoattractant
S. typhimurium [1]; buffer and chemoattractant introduced through the opposite channels
  bacterial density per channel, gravity control: the results were the same
S. typhimurium [2]; 2 mM in chemotaxis buffer in extraction chamber, sample chamber about 110 μL
  concentration of bacteria in the extraction chamber normalized to the initial concentration: about 2 times higher than the initial concentration
S. typhimurium [2]; 2 mM in extraction chamber, deionized water in repellent chamber
  bacteria in the repellent chamber: no bacteria were found

## CCO [Eth20%, Ethanol]
[3]; 50% ethanol chemorepellent gradient, FIG. 4B/4C
  movement of bacteria over time: clearly seen moving away from the ethanol
[3]; 50% ethanol chemorepellent in horizontal channel, FIG. 4B
  state of bacteria next to the maximum concentration of ethanol: non-motile and putatively dead
E. coli O157H7; Meat diluted 1:1
  E: extraction efficiency: 77.60%
E. coli O157H7; Meat diluted 1:2
  E: extraction efficiency: 109.80%
E. coli O157H7; Meat diluted 1:3
  E: extraction efficiency: 57.00%
S. typhimurium [4]; 25 min
  E: extraction efficiency: 76.4% + −8%
S. typhimurium [4]; 30 min
  E: extraction efficiency: 87.9% + −7%

## O=C(O)c1ccccc1 [Benzoate]
bacteria
  Chemoattractant (bacteria for which the substance is one): P. putida
  Chemorepellent (bacteria for which the substance is one): E. coli, S. typhimurium

## CC(=O)O [Acetate]
bacteria
  Chemoattractant (bacteria for which the substance is one): C. vinosum
  Chemorepellent (bacteria for which the substance is one): E. coli, S. typhimurium

## O=C(O)CC(O)(CC(=O)O)C(=O)O [Citrate]
bacteria
  Chemoattractant (bacteria for which the substance is one): S. typhimurium
  Chemorepellent (bacteria for which the substance is one): (no effect on E. coli)

## O [OH^−]
bacteria
  Chemoattractant (bacteria for which the substance is one): R. sphaeroids
  Chemorepellent (bacteria for which the substance is one): E. coli, C. vinosum

## [H+] [H^+]
bacteria
  Chemoattractant (bacteria for which the substance is one): R. sphaeroids
  Chemorepellent (bacteria for which the substance is one): E. coli, C. vinosum

## [Co+2] [Co^2+]
bacteria
  Chemoattractant (bacteria for which the substance is one): (no effect on S. typhimurium)
  Chemorepellent (bacteria for which the substance is one): E. coli

## [Ni+2] [Ni^2]
bacteria
  Chemoattractant (bacteria for which the substance is one): (no effect on S. typhimurium)
  Chemorepellent (bacteria for which the substance is one): E. coli

## CC(C)[C@H](N)C(=O)O [Valine]
bacteria
  Chemoattractant (bacteria for which the substance is one): B. subtilis
  Chemorepellent (bacteria for which the substance is one): E. coli, S. typhimurium

## CC(C)C[C@H](N)C(=O)O [Leucine]
bacteria
  Chemoattractant (bacteria for which the substance is one): B. subtilis
  Chemorepellent (bacteria for which the substance is one): E. coli, S. typhimurium

## Oc1ccccc1 [Phenol]
bacteria
  Chemoattractant (bacteria for which the substance is one): E. coli
  Chemorepellent (bacteria for which the substance is one): S. typhimurium

## OC[C@H]1O[C@H](O[C@H]2[C@H](O)[C@@H](O)C(O)O[C@@H]2CO)[C@H](O)[C@@H](O)[C@@H]1O (mixture of isomers) [Maltose]
bacteria
  Chemoattractant (bacteria for which the substance is one): E. coli
  Chemorepellent (bacteria for which the substance is one): (no effect on S. typhimurium)
